The values that follow are results of earlier work, collected in EP3125915B1, “PROCESS FOR PREPARING A POWDERED MIXTURE OF BORNEOL AND PLANT PROTEINS TO BE USED AS DIETARY OR FOOD SUPPLEMENT, AND RELATED DIETARY OR FOOD SUPPLEMENT” (priority 2014, dated 2015).

The conditions of series [1]: with borneol.
For series [2] the following is noted: with borneol. This is another data set of the same source.
For series [3] the following is noted: with borneol. The source holds these as a separate data set.
Assay in series [4]: not given
The source holds these as a separate data set.

Assay in series [5]: not given
This is another data set of the same source.

The conditions of series [6]: with borneol. This is another data set of the same source.

Molecules are shown by their SMILES. Like-named read-outs stand apart in the source and are kept apart here.

For the compound `OCc1ccc(O[C@@H]2O[C@H](CO)[C@@H](O)[C@H](O)[C@H]2O)cc1` [gastrodin], the “peak time of gastrodin in the plasma” value (administration of gastrodin alone) is listed as 30 min and the “peak time of gastrodin in the plasma” value (gastrodin co-administrated with borneol) was 5 to 15 min. Besides, for the setting “gastrodin co-administrated with borneol, compared with gastrodin alone”, the “bioavailability of gastrodigenin in the brain was increased by” value is 33.6-108.8%.
In the case of `O=c1c(O)c(-c2ccc(O)c(O)c2)oc2cc(O)cc(O)c12` [quercetin], in series [1], the “absorption of quercetin in mice brain tissue” value is given as “improves”.
`Cc1ncc(CNC(=O)N(CCCl)N=O)c(N)n1` [nimustine]: the “bioavailability of nimustine in the CSF” value in series [2] is “increase”.
As for `COC(=O)C1=CO[C@@H](O[C@@H]2O[C@H](CO)[C@@H](O)[C@H](O)[C@H]2O)[C@@H]2C(CO)=CC[C@H]12` [geniposide], the permeability of geniposide result in series [3] (cortex and striatum regions) is on record as “no change”; in series [3] (hippocampus and hypothalamus regions), “increase”. In addition, the “brain delivery of geniposide” value in series [4] (borneol high dose increasing from 2.0 g/kg to 4.0 g/kg) was “decreased”. The “delivery of geniposide in the rat brain” value in series [4] (borneol low dose range of 0.05-2.0 g/kg) is listed as “increases”.
With `Cc1nc(C)c(C)nc1C.O=P(O)(O)O` [TMPP, tetramethylpyrazine phosphate], the “oral bioavailability of TMPP in brain tissue, times increased than that without borneol” value in series [5] (oral borneol 15 mg kg^-1) is reported as 1.12 times; in series [5] (oral borneol 30 mg kg^-1), 1.62 times; in series [5] (oral borneol 90 mg kg^-1), 1.93 times. For the same compound, the “oral bioavailability of TMPP in mice plasma, times increased than that without borneol” value is listed as 1.52 times in series [5] (oral borneol 15 mg kg^-1), 2.21 times in series [5] (oral borneol 30 mg kg^-1) and 2.95 times in series [5] (oral borneol 90 mg kg^-1).
For `NC(=O)N1c2ccccc2C=Cc2ccccc21` [carbamazepine], in series [6], the bioavailability of carbamazepine result is “significantly improve”.
